ChEMBL document CHEMBL1158974, “Iridoids: a new class of leishmanicidal agents from Nyctanthes arbortristis” (J Nat Prod, 1991)
The source made the active and inactive calls. No cut-off for these calls is given here.

Columns and labels:
[1] = Cytotoxicity against Sigmodon hispidus peritoneal macrophages at 60 ug/ml; type: cell-based; settings: peritoneal macrophage cell
Leishmania donovani [2] = test: Antileishmanial activity against Leishmania donovani HOM/IN/80/Dd8 amastigotes infected in Sigmodon hispidus peritoneal macrophages assessed as reduction in infected macrophages at 30 ug/ml; type: functional; settings: for inhibition at 30 µg/mL: HOM/IN/80/Dd8, in Sigmodon hispidus
Leishmania donovani [3] = test: Antileishmanial activity against Leishmania donovani HOM/IN/80/Dd8 amastigotes infected in Sigmodon hispidus peritoneal macrophages assessed as reduction in average number of amastigotes per infected macrophage at 30 ug/ml; type: functional; settings: for inhibition at 30 µg/mL: HOM/IN/80/Dd8, in Sigmodon hispidus
Leishmania donovani [4] = test: Antileishmanial activity against Leishmania donovani HOM/IN/80/Dd8 amastigotes infected in Mesocricetus auratus at 10 mg/kg, ip administered daily for 5 days measured after 7 days; type: functional; settings: for inhibition in vivo at 10 mg/kg: HOM/IN/80/Dd8, in Mesocricetus auratus, route intraperitoneal
Leishmania donovani [5] = test: Antileishmanial activity against Leishmania donovani HOM/IN/80/Dd8 amastigotes infected in Mesocricetus auratus assessed as survival days at 10 mg/kg, ip administered daily for 5 days; type: functional
Leishmania donovani [6] = test: Antileishmanial activity against Leishmania donovani HOM/IN/80/Dd8 amastigotes infected in Mesocricetus auratus at 100 mg/kg, po administered daily for 5 days; type: functional; settings: HOM/IN/80/Dd8, in Mesocricetus auratus, 120 h
Leishmania donovani [7] = test: Antileishmanial activity against Leishmania donovani HOM/IN/80/Dd8 amastigotes infected in Sigmodon hispidus peritoneal macrophages assessed as reduction in average number of amastigotes per infected macrophage at 100 ug/ml; type: functional
Leishmania donovani [8] = test: Antileishmanial activity against Leishmania donovani HOM/IN/80/Dd8 amastigotes infected in Mesocricetus auratus at 10 mg/kg, ip administered daily for 5 days measured after 28 days; type: functional
Leishmania donovani [9] = test: Antileishmanial activity against Leishmania donovani HOM/IN/80/Dd8 amastigotes infected in Sigmodon hispidus peritoneal macrophages assessed as reduction in infected macrophages at 100 ug/ml; type: functional
Leishmania donovani [10] = test: Antileishmanial activity against Leishmania donovani HOM/IN/80/Dd8 amastigotes assessed as minimum effective dose; type: functional, organism-based
Leishmania donovani [11] = test: Antileishmanial activity against Leishmania donovani HOM/IN/80/Dd8 amastigotes infected in Sigmodon hispidus peritoneal macrophages assessed as reduction in infected macrophages at 60 ug/ml; type: functional; settings: HOM/IN/80/Dd8, in Sigmodon hispidus
Leishmania donovani [12] = test: Antileishmanial activity against Leishmania donovani HOM/IN/80/Dd8 amastigotes infected in Sigmodon hispidus peritoneal macrophages assessed as reduction in average number of amastigotes per infected macrophage at 60 ug/ml; type: functional; settings: HOM/IN/80/Dd8, in Sigmodon hispidus
[13] = HOM/IN/80/Dd8, in Sigmodon hispidus

Compound	Activity [1]	inhibition at 30 µg/mL (Leishmania donovani [2]) [%]	inhibition at 30 µg/mL (Leishmania donovani [3]) [%]	inhibition (Leishmania donovani [4])	Survival (Leishmania donovani [5]; route intraperitoneal) [days]	inhibition in vivo at 10 mg/kg (Leishmania donovani [4]) [%]	inhibition (Leishmania donovani [8])	also measured
COC(=O)C1=CO[C@@H](O[C@@H]2O[C@H](CO)[C@@H](O)[C@H](O)[C@H]2O)[C@@H]2[C@@H](C)[C@@H](OC(=O)/C=C/c3ccc(O)cc3)[C@@H](O)[C@H]12 [ARBORTRISTOSIDE C]	Toxic	39.9	67.4	inactive	<28	–	–	–
COC(=O)C1=CO[C@@H](O[C@@H]2O[C@H](CO)[C@@H](O)[C@H](O)[C@H]2O)[C@@H]2[C@@H](C)[C@@H](O)[C@@H](O)[C@H]12	Toxic	42.2	65.8	–	<28	30.8	–	–
COC(=O)C1=CO[C@@H](O[C@@H]2O[C@H](CO)[C@@H](O)[C@H](O)[C@H]2O)[C@@H]2[C@@H](C)[C@@H](OC(=O)/C=C/c3ccc(OC)cc3)[C@@H](O)[C@H]12 [ARBORTRISTOSIDE A]	–	7.13	45.8	–	38	18.2	–	inhibition in vivo at 100 mg/kg (Leishmania donovani [6]): 57%; inhibition at 100 µg/mL (Leishmania donovani [7]; [13]): 64.6%; inhibition in vivo at 10 mg/kg (Leishmania donovani [8]; HOM/IN/80/Dd8, in Mesocricetus auratus, route intraperitoneal): 79.7%; inhibition at 100 µg/mL (Leishmania donovani [9]; [13]): 30.2%
sodium stibogluconate	–	–	–	71.9%	–	–	93.5%	inhibition (Leishmania donovani [7]): 100%; inhibition (Leishmania donovani [2]): 80%; MED (Leishmania donovani [10]): 10 mg/kg; inhibition (Leishmania donovani [3]): 80%; inhibition (Leishmania donovani [9]): 100%; Survival (Leishmania donovani [5]): < 30 days
COC(=O)C1=CO[C@@H](O[C@@H]2O[C@H](CO)[C@@H](O)[C@H](O)[C@H]2O)[C@@H]2[C@@H](CO)[C@@H](OC(=O)/C=C/c3ccc(O)c(O)c3)[C@@H](O)[C@H]12 [ARBORTRISTOSIDE B]	–	28.1	25.1	inactive	59	–	inactive	inhibition at 60 µg/mL (Leishmania donovani [11]): 41.7%; inhibition at 60 µg/mL (Leishmania donovani [12]): 47.3%
